Measurements: ChEMBL document CHEMBL1150042, “The synthesis of BRL 49653 - a novel and potent antihyperglycaemic agent” (Bioorg Med Chem Lett, 1994)

Organism: Mus musculus
Experiment: Minimum effective dose for anti-hyperglycaemic activity was determined in C57B1/6 ob/ob obese mouse
Type: functional

SMILES | MED
CC1(COc2ccc(CC3SC(=O)NC3=O)cc2)CCCCC1 (stereo not drawn) [CIGLITAZONE] | 3000 uM.kg/diet
CN(CCOc1ccc(CC2SC(=O)NC2=O)cc1)c1nc2ccccc2o1 (stereo not drawn) [BRL-48482] | 3 uM.kg/diet
Cc1c(C)c2c(c(C)c1O)CCC(C)(COc1ccc(CC3SC(=O)NC3=O)cc1)O2 (stereo not drawn) [TROGLITAZONE] | 600 uM.kg/diet
O=C(NCCOc1ccc(CC2SC(=O)NC2=O)cc1)Nc1ccccc1 (stereo not drawn) | 100 uM.kg/diet
CCc1ccc(CCOc2ccc(CC3SC(=O)NC3=O)cc2)nc1 (stereo not drawn) [PIOGLITAZONE] | 200 uM.kg/diet
O=C1NC(=O)C(Cc2ccc3c(c2)CC[C@H](Cc2ccccc2)O3)S1 (stereo partly drawn) [ENGLITAZONE] | 200 uM.kg/diet
CN(CCOc1ccc(CC2SC(=O)NC2=O)cc1)c1ccccn1 (stereo not drawn) [ROSIGLITAZONE] | 3 µM/kg
CC1(COc2ccc(CC3SC(=O)NC3=O)cc2)CCCC(O)C1 (stereo not drawn) | 500 uM.kg/diet
